Test results: US20140357512A1, “HISTONE DEACETYLASE (HDAC) BIOMARKERS IN MULTIPLE MYELOMA” (priority 2013, published 2014)

Test system: human myeloma cell line MM.1S
Test: SILAC acetylated-lysine peptide profiling, HDAC inhibitor vs DMSO (light/heavy ratio)
Type: cell-based
Description: An embodiment of the invention comprises utilizing the SILAC method in order to quantitate changes in protein expression between two or more populations of cells. The SILAC method is a technique based on mass spectrometry that detects differences in protein abundance among samples using non-radioactive isotopic labeling. The SILAC method is known in the art, and described in detail in Ong et al., “Stable Isotope Labeling by Amino Acids in Cell Culture, SILAC, as a Simple and Accurate Approach to Expression Proteomics”, Molecular & Cellular Proteomics, vol. 1, pp. 376-386 (2002), which is incorporated herein by reference in its entirety.
Briefly, the SILAC method involves growing two populations of cells in cell culture. The first population of cells is grown in growth media containing normal amino acids (“normal media”). The second population of cells is grown in media lacking a standard essential amino acid (such as lysine), but is then supplemented with a non-radioactive, isotopically labeled form of that essential amino acid (such as lysine labeled with ^13C atoms, rather than normal ^12C atoms), which is called “heavy media”. When the two populations of cells are each growing in the medium, they incorporate the amino acids into all of their proteins. The growth of cells maintained in the heavy media is no different from that in normal media. All peptides containing the heavy amino acids are heavier than their normal counterparts. The cells from each of the two populations of cells are lysed. The lysates from each of the two cell populations are then combined. The combined cell lysates are then analyzed by mass spectrometry. Pairs of chemically identical peptides of different stable isotope composition can be differentiated in a mass spectrometer due to their difference in mass. The ratio of peak intensities in the mass spectrum for such peptide pairs reflects the abundance ratio for the two proteins.
This example describes SILAC studies that were performed to compare the effects of three different HDAC inhibitors (Compound A, Compound B, and tubastatin A) to a control on a human multiple myeloma cell line. The HDAC inhibitors were also compared amongst themselves to determine differences in their effects.
A human myeloma cell line MM.1S was grown using either ^12C (light) or ^13C (heavy) lysine containing culture medium. The “heavy” cells were treated with DMSO as the control, and the “light” cells were treated with a single HDAC inhibitor at 37° C. for 6 hours. The heavy and light cells were lysed, and the lysates were mixed in 1:1 ratio and digested with the protease trypsin. The acetylated lysine containing peptides (due to the action of the HDAC inhibitor) in the digested peptide pool were captured by a non-specific anti-acetylated lysine antibody cocktail (the antibodies identify both light and heavy acetylated peptides), and subjected to mass spectrometry analysis in order to identify thousands of individual peptides.
Thousands of peptides were identified in pairs (^12C and ^13C) due to their known mass differences. The amino acid sequence and quantitative ratio (Light/Heavy) of a given peptide in two differentially treated cell lysates were then determined and annotated with their possible protein (gene) sources.
As stated above, three HDAC inhibitors (Compound A, Compound B, and Tubastatin A) were used. Thus, the SILAC method was performed three times, with a different HDAC inhibitor compared to a control each time. Accordingly, there are three pairs of quantitative data in the table below, i.e., Compound A:DMSO, Compound B:DMSO, and Tubastatin A:DMSO. A cut-off of 1.30 fold of change (increase or decrease) was then used to determine “changed” or “+” in the table, and any peptides with a fold of change less than 1.3 fold were determined to be “unchanged” or “0” in the table. Those peptides that were not identified were marked as “NA” in the table. […]

For `CN1CCc2c(c3ccccc3n2Cc2ccc(C(=O)NO)cc2)C1` [Tub A], the “L/H ratio of acetylated peptide MYFDK(ac)YVLKPATEGK (SEQ ID NO: 23)” value (ATAD3A [491], log 2 scale, drug vs DMSO) was 0.62, the “L/H ratio of acetylated peptide IVEYEK(ac)EMEK (SEQ ID NO: 24)” value (ATP5H [117], log 2 scale, drug vs DMSO) was 0.63 and the “L/H ratio of acetylated peptide YYNK(ac)YINVK (SEQ ID NO: 12)” value (ATP5J2 [54], log 2 scale, drug vs DMSO) was 0.66. The “light to heavy ratio (L/H ratio) of acetylated peptide QNK(ac)LEQVEK (SEQ ID NO: 271)” value (ATP synthase subunit O mitochondrial [54], ATP50, drug:DMSO) was 0.45 log 2, the “light to heavy ratio (L/H ratio) of acetylated peptide STVAQLVK(ac)R (SEQ ID NO: 552)” value (ATP synthase subunit alpha mitochondrial [261], gene ATP5A1, inhibitor:DMSO) was 0.00 log 2 and the “light to heavy ratio (L/H ratio) of acetylated peptide ISEQSDAK(ac)LK (SEQ ID NO: 600)” value (ATP synthase subunit alpha mitochondrial [539], gene ATP5A1, inhibitor:DMSO) was 0.00 log 2. The “light to heavy ratio (L/H ratio) of acetylated peptide HVVQSISTQQEK(ac)ETIAK (SEQ ID NO: 307)” value (ATP synthase subunit b mitochondrial [233], ATP5F1, drug:DMSO) was 0.62 log 2, the “light to heavy ratio (L/H ratio) of acetylated peptide IVNSAQTGSFK(ac)QLTVK (SEQ ID NO: 279)” value (ATP synthase subunit g mitochondrial [66], ATP5L, drug:DMSO) was 0.77 log 2 and the “light to heavy ratio (L/H ratio) of acetylated peptide ELDPIQK(ac)LFVDK (SEQ ID NO: 365)” value (ATP synthase-coupling factor 6 mitochondrial [41], ATP5J, drug:DMSO) was 0.00 log 2. The “light to heavy ratio (L/H ratio) of acetylated peptide FEDPK(ac)FEVIEKPQA (SEQ ID NO: 325)” value (ATP synthase-coupling factor 6 mitochondrial [99], ATP5J, drug:DMSO) was 0.00 log 2, the “light to heavy ratio (L/H ratio) of acetylated peptide, log 2 scale” value (AVEEK(ac)IEWLESHQDADIEDFK (SEQ ID NO: 172), 78 kDa glucose-regulated protein [601], HSPA5) was −0.54 and the “light to heavy ratio (L/H ratio) of acetylated peptide, log 2 scale” value (AVIWPQYVK(ac)DR (SEQ ID NO: 156), cDNA FLJ59630 highly similar to Growth hormone-inducible transmembrane protein [124], GHITM) was 0.47. For the same compound, the “light to heavy ratio (L/H ratio) of acetylated peptide, log 2 scale” value (AVK(ac)HAEELER (SEQ ID NO: 225), Isoform 2 of Signal recognition particle 68 kDa protein [164], SRP68) was −1.00, the “light to heavy ratio (L/H ratio) of acetylated peptide, log 2 scale” value (AYGGSMCAK(ac)CVR (SEQ ID NO: 204), 60S ribosomal protein L34 [85], RPL34) was 0.40 and the “L/H ratio of acetylated peptide” value (AYHLQK(ac)STCGK (SEQ ID NO: 443), 60S ribosomal protein L37 [31], RPL37) was 0.00 log 2. The “light to heavy ratio (L/H ratio) of acetylated peptide AFAK(ac)ELFLGK (SEQ ID NO: 627)” value (Acyl-CoA dehydrogenase family member 9 mitochondrial [41], gene ACAD9, inhibitor:DMSO) was 0.00 log 2, the “light to heavy ratio (L/H ratio) of acetylated peptide YSAK(ac)DYFFK (SEQ ID NO: 319)” value (Alpha-soluble NSF attachment protein [203], NAPA, drug:DMSO) was 0.44 log 2 and the “light to heavy ratio (L/H ratio) of acetylated peptide PAQGAK(ac)YR (SEQ ID NO: 305)” value (Annexin A6 [9], ANXA6, drug:DMSO) was 0.39 log 2. The “light to heavy ratio (L/H ratio) of acetylated peptide TKYEK(ac)SLYSMIK (SEQ ID NO: 270)” value (Annexin A6 [299], ANXA6, drug:DMSO) was 0.42 log 2, the “light to heavy ratio (L/H ratio) of acetylated peptide NDTSGEYK(ac)K (SEQ ID NO: 285)” value (Annexin A6 [314], ANXA6, drug:DMSO) was 0.70 log 2 and the “light to heavy ratio (L/H ratio) of acetylated peptide AINEAYK(ac)EDYHK (SEQ ID NO: 282)” value (Annexin A6 [478], ANXA6, drug:DMSO) was 0.53 log 2. For the same compound, the “light to heavy ratio (L/H ratio) of acetylated peptide NKPLFFADK(ac)LYK (SEQ ID NO: 298)” value (Annexin A6 [607], ANXA6, drug:DMSO) was 0.51 log 2, the “light to heavy ratio (L/H ratio) of acetylated peptide GAGTDEK(ac)TLTR (SEQ ID NO: 621)” value (Annexin A6 [620], gene ANXA6, inhibitor:DMSO) was 0.00 log 2 and the “light to heavy ratio (L/H ratio), log 2 scale, acetylated peptide EFIEK(ac)YDK (SEQ ID NO: 779)” value (Annexin A6 [644], gene ANXA6, drug:DMSO) was 0.00. The “light to heavy ratio (L/H ratio) of acetylated peptide DDNGK(ac)PYVLPSVR (SEQ ID NO: 579)” value (Aspartate aminotransferase mitochondrial [73], gene GOT2, inhibitor:DMSO) was 0.00 log 2, the “light to heavy ratio (L/H ratio) of acetylated peptide ELK(ac)EIQYGIR (SEQ ID NO: 540)” value (Branched-chain-amino-acid aminotransferase [337], gene BCAT2, inhibitor:DMSO) was 0.00 log 2 and the “light to heavy ratio (L/H ratio), log 2 scale, acetylated peptide ESCSK(ac)HASGTSFHLPQPSFR (SEQ ID NO: 780)” value (Bromodomain and PHD finger-containing protein 3 [105], gene BRPF3, drug:DMSO) was 0.00. For the same compound, the “L/H ratio of acetylated peptide FYGDEEK(ac)DKGLQTSQDAR (SEQ ID NO: 25)” value (CALR [62], log 2 scale, drug vs DMSO) was −0.97, the “light to heavy ratio (L/H ratio) of acetylated peptide AGLQVYNK(ac)CWK (SEQ ID NO: 260)” value (CD59 glycoprotein [63], CD59, drug:DMSO) was −0.45 log 2 and the “L/H ratio of acetylated peptide ALEHFTDLYDIK(ac)R (SEQ ID NO: 26)” value (CLTC [637], log 2 scale, drug vs DMSO) was −0.62. The “L/H ratio of acetylated peptide FK(ac)ESFAEMNR (SEQ ID NO: 1)” value (COX4I1 [87], log 2 scale, drug vs DMSO) was 0.52, the “L/H ratio of acetylated peptide […](ac)QLCTIPR (SEQ ID NO: 27)” value (CREBBP [1216], log 2 scale, drug vs DMSO) was 0.60 and the “L/H ratio of acetylated peptide TNK(ac)NK(ac)SSISR (SEQ ID NO: 13)” value (CREBBP [1595:1597], log 2 scale, drug vs DMSO) was 0.64. The “L/H ratio of acetylated peptide ALK(ac)DLYCHK (SEQ ID NO: 28)” value (CREM [240], log 2 scale, drug vs DMSO) was 0.43, the “L/H ratio of acetylated peptide LYCPK(ac)CMDVYTPK (SEQ ID NO: 29)” value (CSNK2B [139], log 2 scale, drug vs DMSO) was −0.39 and the “light to heavy ratio (L/H ratio) of acetylated peptide FVLSSGK(ac)FYGDEEKDK (SEQ ID NO: 281)” value (Calreticulin [55], CALR, drug:DMSO) was −0.51 log 2. The “light to heavy ratio (L/H ratio) of acetylated peptide VHVIFNYK(ac)GK (SEQ ID NO: 273)” value (Calreticulin [151], CALR, drug:DMSO) was −0.58 log 2, the “light to heavy ratio (L/H ratio) of acetylated peptide NVLINK(ac)DIR (SEQ ID NO: 257)” value (Calreticulin [159], CALR, drug:DMSO) was −0.88 log 2 and the “light to heavy ratio (L/H ratio) of acetylated peptide TCDLVGEK(ac)GK (SEQ ID NO: 289)” value (Cation-dependent mannose-6-phosphate receptor [38], M6PR, drug:DMSO) was −0.81 log 2. The “light to heavy ratio (L/H ratio) of acetylated peptide EFALK(ac)HLPNDPMFK (SEQ ID NO: 583)” value (Citrate synthase mitochondrial [366], gene CS, inhibitor:DMSO) was 0.00 log 2, the “light to heavy ratio (L/H ratio), log 2 scale, acetylated peptide MIYASSK(ac)DAIKK (SEQ ID NO: 763)” value (Cofilin-1 [121], gene CFL1, drug:DMSO) was 0.00 and the “light to heavy ratio (L/H ratio) of acetylated peptide AAEEVEAK(ac)FK (SEQ ID NO: 328)” value (Coiled-coil-helix-coiled-coil-helix domain-containing protein 3 mitochondrial [173], CHCHD3, drug:DMSO) was 0.00 log 2. For the same compound, the “light to heavy ratio (L/H ratio) of acetylated peptide ASEIGEK(ac)YR (SEQ ID NO: 586)” value (Conserved hypothetical protein [484], gene KIAA0947, inhibitor:DMSO) was 0.00 log 2 and the “light to heavy ratio (L/H ratio) of acetylated peptide DHCVAHK(ac)LFNNLK (SEQ ID NO: 608)” value (Cytochrome b-c1 complex subunit 6 mitochondrial [85], gene UQCRH, inhibitor:DMSO) was 0.00 log 2.
